Non-standard residues stand in square brackets, D forms with d. No end group written: not given here. hArg = N=C(N)NCCCC[C@H](N)C(=O)O; Agb = N=C(N)NCC[C@H](N)C(=O)O; Agp = N=C(N)NC[C@H](N)C(=O)O; Orn = NCCC[C@H](N)C(=O)O; Dab = NCC[C@H](N)C(=O)O; Dap = NC[C@H](N)C(=O)O
System: S. aureus (MRSA SAP0017)
Format: cell-based, Staphylococcus aureus
Settings: SPOT synthesized control peptides, determined as in Table 5; Table 7
Protocol: Methods of assessment of anti-biofilm activity: MRSA S. aureus strain SAP0017 biofilm formation was initially analyzed using a static abiotic solid surface assay as described elsewhere (de la Fuente-Nunez et al., 2012) and shown graphically in FIG. 2. Dilutions (1/100) of overnight cultures were incubated in BM2 biofilm-adjusted medium [62 mM potassium phosphate buffer (pH 7), 7 mM (NH4)2SO4, 2 mM MgSO4, 10 μM FeSO4, 0.4% (wt/vol) glucose, 0.5% (wt/vol) Casamino Acids], or a nutrient rich medium such as Tryptic soy broth supplemented with 1% glucose, in polypropylene microtiter plates (Falcon, United States) in the absence (control) or presence of peptide. Peptide was added at time zero (prior to adding the diluted, overnight cultures) in varying concentrations, and the amount biofilm formation was recorded after 22-46 h incubation for most bacteria. To quantify biofilm growth, planktonic cells were removed and biofilm cells adhering to the side of the wells were stained with crystal violet, and absorbance at 595 nm was measured using a microtiter plate reader (Bio-Tek Instruments Inc., United States).

Row | Substance | % Biofilm Inhibition [%]
1 | C94 (VRLIVAVR[Dap]WRR) [Peptide C94] | 92
2 | C77 (VRLIVAVRI[Agb]RR; not fully specified (C-terminus); printed as VRLIVAVRIGbutRR) [Peptide C77] | 101
3 | C72 (VRLI[Agb]AVRIWRR; not fully specified (C-terminus); printed as VRLIGbutAVRIWRR) [Peptide C72] | 105
4 | C61 (VRLI[Agp]AVRIWRR-NH2; N-terminus assumed; SMILES CC[C@H](C)[C@H](NC(=O)[C@H](CC(C)C)NC(=O)[C@H](CCCNC(=N)N)NC(=O)[C@@H](N)C(C)C)C(=O)N[C@@H](CNC(=N)N)C(=O)N[C@@H](C)C(=O)N[C@H](C(=O)N[C@@H](CCCNC(=N)N)C(=O)N[C@H](C(=O)N[C@@H](Cc1c[nH]c2ccccc12)C(=O)N[C@@H](CCCNC(=N)N)C(=O)N[C@@H](CCCNC(=N)N)C(N)=O)[C@@H](C)CC)C(C)C) [Peptide C61] | 101
5 | C82 (VRL[hArg]VAVRIWRR) [Peptide C82] | 106
6 | C102 (VRLIVAVR[Dab]WRR-NH2; N-terminus assumed; SMILES CC[C@H](C)[C@H](NC(=O)[C@H](CC(C)C)NC(=O)[C@H](CCCNC(=N)N)NC(=O)[C@@H](N)C(C)C)C(=O)N[C@H](C(=O)N[C@@H](C)C(=O)N[C@H](C(=O)N[C@@H](CCCNC(=N)N)C(=O)N[C@@H](CCN)C(=O)N[C@@H](Cc1c[nH]c2ccccc12)C(=O)N[C@@H](CCCNC(=N)N)C(=O)N[C@@H](CCCNC(=N)N)C(N)=O)C(C)C)C(C)C) [Peptide C102] | 104
7 | C78 (VRLIVAVRIW[Agb]R; not fully specified (C-terminus); printed as VRLIVAVRIWGbutR) [Peptide C78] | 101
8 | C97 (VRL[Dab]VAVRIWRR; not fully specified (C-terminus)) [Peptide C97] | 102
9 | C100 (VRLIVA[Dab]RIWRR-NH2; N-terminus assumed; SMILES CC[C@H](C)[C@H](NC(=O)[C@H](CCCNC(=N)N)NC(=O)[C@H](CCN)NC(=O)[C@H](C)NC(=O)[C@@H](NC(=O)[C@@H](NC(=O)[C@H](CC(C)C)NC(=O)[C@H](CCCNC(=N)N)NC(=O)[C@@H](N)C(C)C)[C@@H](C)CC)C(C)C)C(=O)N[C@@H](Cc1c[nH]c2ccccc12)C(=O)N[C@@H](CCCNC(=N)N)C(=O)N[C@@H](CCCNC(=N)N)C(N)=O) [Peptide C100] | 104
10 | C99 (VRLIV[Dab]VRIWRR; not fully specified (C-terminus)) [Peptide C99] | 100
11 | C75 (VRLIVAV[Agb]IWRR; not fully specified (C-terminus); printed as VRLIVAVGbutIWRR) [Peptide C75] | 103
12 | C95 (V[Dab]LIVAVRIWRR) [Peptide C95] | 71
13 | C103 (VRLIVAVRI[Dab]RR-NH2; N-terminus assumed; SMILES CC[C@H](C)[C@H](NC(=O)[C@H](CCCNC(=N)N)NC(=O)[C@@H](NC(=O)[C@H](C)NC(=O)[C@@H](NC(=O)[C@@H](NC(=O)[C@H](CC(C)C)NC(=O)[C@H](CCCNC(=N)N)NC(=O)[C@@H](N)C(C)C)[C@@H](C)CC)C(C)C)C(C)C)C(=O)N[C@@H](CCN)C(=O)N[C@@H](CCCNC(=N)N)C(=O)N[C@@H](CCCNC(=N)N)C(N)=O) [Peptide C103] | 102
14 | C106 (VR[Orn]IVAVRIWRR-NH2; N-terminus assumed; SMILES CC[C@H](C)[C@H](NC(=O)[C@H](CCCNC(=N)N)NC(=O)[C@@H](NC(=O)[C@H](C)NC(=O)[C@@H](NC(=O)[C@@H](NC(=O)[C@H](CCCN)NC(=O)[C@H](CCCNC(=N)N)NC(=O)[C@@H](N)C(C)C)[C@@H](C)CC)C(C)C)C(C)C)C(=O)N[C@@H](Cc1c[nH]c2ccccc12)C(=O)N[C@@H](CCCNC(=N)N)C(=O)N[C@@H](CCCNC(=N)N)C(N)=O) [Peptide C106] | 104
15 | C107 (VRL[Orn]VAVRIWRR) [Peptide C107] | 71
16 | C71 (VRL[Agb]VAVRIWRR; not fully specified (C-terminus); printed as VRLGbutVAVRIWRR) [Peptide C71] | 103
17 | C68 (VRLIVAVRIWR[Agp]) [Peptide C68] | 106
18 | C59 (VR[Agp]IVAVRIWRR-NH2; N-terminus assumed; SMILES CC[C@H](C)[C@H](NC(=O)[C@H](CCCNC(=N)N)NC(=O)[C@@H](NC(=O)[C@H](C)NC(=O)[C@@H](NC(=O)[C@@H](NC(=O)[C@H](CNC(=N)N)NC(=O)[C@H](CCCNC(=N)N)NC(=O)[C@@H](N)C(C)C)[C@@H](C)CC)C(C)C)C(C)C)C(=O)N[C@@H](Cc1c[nH]c2ccccc12)C(=O)N[C@@H](CCCNC(=N)N)C(=O)N[C@@H](CCCNC(=N)N)C(N)=O) [Peptide C59] | 104
19 | C92 (VRLIVA[Dap]RIWRR) [Peptide C92] | 103
20 | C83 (VRLI[hArg]AVRIWRR) [Peptide C83] | 106

Same assay, conditions: SPOT synthesized peptide, ~12.5 μM, clinical MRSA strain, crystal violet assay

Row | Substance | % Residual MRSA biofilm growth compared to untreated control [%]
21 | RQVRVKRWRARW (RQVRVKRWRARW-NH2) [Mmax-18] | 100
22 | VOrnLIVAVRIWRR (V[Orn]LIVAVRIWRR-NH2; N-terminus assumed; SMILES CC[C@H](C)[C@H](NC(=O)[C@H](CCCNC(=N)N)NC(=O)[C@@H](NC(=O)[C@H](C)NC(=O)[C@@H](NC(=O)[C@@H](NC(=O)[C@H](CC(C)C)NC(=O)[C@H](CCCN)NC(=O)[C@@H](N)C(C)C)[C@@H](C)CC)C(C)C)C(C)C)C(=O)N[C@@H](Cc1c[nH]c2ccccc12)C(=O)N[C@@H](CCCNC(=N)N)C(=O)N[C@@H](CCCNC(=N)N)C(N)=O) [Peptide 1018-k26] | 63
23 | GbutRLIVAVRIWRR ([Agb]RLIVAVRIWRR-NH2; N-terminus assumed; SMILES CC[C@H](C)[C@H](NC(=O)[C@H](CCCNC(=N)N)NC(=O)[C@@H](NC(=O)[C@H](C)NC(=O)[C@@H](NC(=O)[C@@H](NC(=O)[C@H](CC(C)C)NC(=O)[C@H](CCCNC(=N)N)NC(=O)[C@@H](N)CCNC(=N)N)[C@@H](C)CC)C(C)C)C(C)C)C(=O)N[C@@H](Cc1c[nH]c2ccccc12)C(=O)N[C@@H](CCCNC(=N)N)C(=O)N[C@@H](CCCNC(=N)N)C(N)=O) [Peptide 1018-r13] | 47
24 | VRLIVOrnVRIWRR (VRLIV[Orn]VRIWRR-NH2; N-terminus assumed; SMILES CC[C@H](C)[C@H](NC(=O)[C@H](CCCNC(=N)N)NC(=O)[C@@H](NC(=O)[C@H](CCCN)NC(=O)[C@@H](NC(=O)[C@@H](NC(=O)[C@H](CC(C)C)NC(=O)[C@H](CCCNC(=N)N)NC(=O)[C@@H](N)C(C)C)[C@@H](C)CC)C(C)C)C(C)C)C(=O)N[C@@H](Cc1c[nH]c2ccccc12)C(=O)N[C@@H](CCCNC(=N)N)C(=O)N[C@@H](CCCNC(=N)N)C(N)=O) [Peptide 1018-k30] | 27
25 | OrnRLIVAVRIWRR ([Orn]RLIVAVRIWRR-NH2; N-terminus assumed; SMILES CC[C@H](C)[C@H](NC(=O)[C@H](CCCNC(=N)N)NC(=O)[C@@H](NC(=O)[C@H](C)NC(=O)[C@@H](NC(=O)[C@@H](NC(=O)[C@H](CC(C)C)NC(=O)[C@H](CCCNC(=N)N)NC(=O)[C@@H](N)CCCN)[C@@H](C)CC)C(C)C)C(C)C)C(=O)N[C@@H](Cc1c[nH]c2ccccc12)C(=O)N[C@@H](CCCNC(=N)N)C(=O)N[C@@H](CCCNC(=N)N)C(N)=O) [Peptide 1018-k25] | 44
26 | VKGAIKRGIWVK (VKGAIKRGIWVK-NH2) [Imax-5] | 99
27 | VRLIVAVOrnIWRR (VRLIVAV[Orn]IWRR-NH2; N-terminus assumed; SMILES CC[C@H](C)[C@H](NC(=O)[C@H](CCCN)NC(=O)[C@@H](NC(=O)[C@H](C)NC(=O)[C@@H](NC(=O)[C@@H](NC(=O)[C@H](CC(C)C)NC(=O)[C@H](CCCNC(=N)N)NC(=O)[C@@H](N)C(C)C)[C@@H](C)CC)C(C)C)C(C)C)C(=O)N[C@@H](Cc1c[nH]c2ccccc12)C(=O)N[C@@H](CCCNC(=N)N)C(=O)N[C@@H](CCCNC(=N)N)C(N)=O) [Peptide 1018-k32] | 46
28 | KKQKKIWRRILV (KKQKKIWRRILV-NH2) [Mmax-16] | 105
29 | VRLIVAVHarIWRR (VRLIVAV[hArg]IWRR-NH2; N-terminus assumed; SMILES CC[C@H](C)[C@H](NC(=O)[C@H](CCCCNC(=N)N)NC(=O)[C@@H](NC(=O)[C@H](C)NC(=O)[C@@H](NC(=O)[C@@H](NC(=O)[C@H](CC(C)C)NC(=O)[C@H](CCCNC(=N)N)NC(=O)[C@@H](N)C(C)C)[C@@H](C)CC)C(C)C)C(C)C)C(=O)N[C@@H](Cc1c[nH]c2ccccc12)C(=O)N[C@@H](CCCNC(=N)N)C(=O)N[C@@H](CCCNC(=N)N)C(N)=O) [Peptide 1018-r32] | 45

From US20210138025A1, “CATIONIC PEPTIDES WITH IMMUNOMODULATORY AND/OR ANTI-BIOFILM ACTIVITIES” (priority 2018, published 2021)
